According to ChEMBL document CHEMBL5370560, “Isolation of Anti-SARS-CoV-2 Natural Products Extracted from Mentha canadensis and the Semi-synthesis of Antiviral Derivatives” (J Nat Prod, 2023):
Values after ≈ are worked out from the molar mass of the structure shown.

Test system: SARS-CoV-2
Experiment: Antiviral activity against SARS-CoV-2 hCoV-19/Egypt/NRC-03/2020 infected in Vero E6 cells assessed as reduction in plaque formation pretreated with cells for 1 hr followed by viral infection for 1 hr with subsequent replacement of compound containing medium and measured after 3 to 4 days by crystal violet staining based analysis
Assay type: functional, organism-based
Details: Severe acute respiratory syndrome coronavirus 2, hCoV-19/Egypt/NRC-03/2020, Vero C1008

SMILES: O=C(/C=C/c1ccc(O)c(O)c1)O[C@H](Cc1ccc(O)c(O)c1)C(=O)O [ROSMARINIC ACID]
- IC50: 0.0255 µg/mL (≈ 0.0707 µM)
